Measurements published in ChEMBL document CHEMBL1201862, “PubChem BioAssay data set” (2004).
Each block holds one compound with its values, some of them ahead of it. Active and inactive are the calls of the source.

Columns and labels:
Cannabinoid receptor 2 [1] = biological target: T1, Cannabinoid receptor 2 (Homo sapiens, UniProt P34972); test: SAR analysis of agonists of the Cannabinoid Receptor 2 using an Image-Based Assay - Set 3. [Related pubchem assays (depositor defined):AID2013, AID2026]; type: functional
T1 sequence (P34972 whole entry): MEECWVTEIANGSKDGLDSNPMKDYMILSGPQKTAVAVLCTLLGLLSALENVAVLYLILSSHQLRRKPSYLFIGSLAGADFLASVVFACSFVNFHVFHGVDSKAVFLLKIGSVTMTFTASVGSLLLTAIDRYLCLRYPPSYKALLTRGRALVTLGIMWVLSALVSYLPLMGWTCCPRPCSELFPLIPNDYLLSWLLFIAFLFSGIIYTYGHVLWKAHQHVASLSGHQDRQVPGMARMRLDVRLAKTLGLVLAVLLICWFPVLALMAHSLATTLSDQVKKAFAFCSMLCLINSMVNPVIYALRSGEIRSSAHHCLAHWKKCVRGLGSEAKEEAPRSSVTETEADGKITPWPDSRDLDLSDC

[2] = biological target: G-protein coupled receptor 55 (Homo sapiens, UniProt Q9Y2T6); test: SAR Analysis of Selective Antagonists of GPR55 using an Image-Based Assay - Set 4. [Related pubchem assays (depositor defined):AID2013, AID2026]; type: functional;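 also: antagonism of response to 5 µM lysophosphatidylinositol agonist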
Chain of G-protein coupled receptor 55 (Q9Y2T6 whole entry): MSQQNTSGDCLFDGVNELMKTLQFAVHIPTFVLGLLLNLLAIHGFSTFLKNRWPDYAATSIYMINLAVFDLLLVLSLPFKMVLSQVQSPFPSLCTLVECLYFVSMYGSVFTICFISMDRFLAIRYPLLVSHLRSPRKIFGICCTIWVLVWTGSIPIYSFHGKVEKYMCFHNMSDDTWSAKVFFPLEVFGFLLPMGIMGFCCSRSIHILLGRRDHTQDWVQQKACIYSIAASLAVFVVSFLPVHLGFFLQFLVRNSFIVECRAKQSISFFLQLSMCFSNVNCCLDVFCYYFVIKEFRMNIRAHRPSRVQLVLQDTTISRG

[3] = biological target: T2, G-protein coupled receptor 35 (Homo sapiens, UniProt Q9HC97); test: SAR analysis of Antagonists of the GPR35 Receptor using an Image-Based Assay - Set 6. [Related pubchem assays (depositor defined):AID2013, AID2026]; type: functional
T2 sequence (Q9HC97 whole entry): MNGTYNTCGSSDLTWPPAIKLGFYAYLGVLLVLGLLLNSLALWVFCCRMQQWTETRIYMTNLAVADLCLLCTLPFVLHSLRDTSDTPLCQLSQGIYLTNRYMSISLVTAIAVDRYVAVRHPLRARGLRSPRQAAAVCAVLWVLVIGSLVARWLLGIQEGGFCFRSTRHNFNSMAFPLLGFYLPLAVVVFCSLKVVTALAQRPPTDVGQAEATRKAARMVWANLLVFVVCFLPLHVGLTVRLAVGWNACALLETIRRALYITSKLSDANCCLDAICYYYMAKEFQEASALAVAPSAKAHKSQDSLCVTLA

Cannabinoid receptor 1 [4] = biological target: T3, Cannabinoid receptor 1 (Homo sapiens, UniProt P21554); test: SAR analysis of antagonists of the Cannabinoid Receptor 1 using an Image-Based Assay - Set 4. [Related pubchem assays (depositor defined):AID2013, AID2026]; type: functional
T3 sequence (P21554 whole entry): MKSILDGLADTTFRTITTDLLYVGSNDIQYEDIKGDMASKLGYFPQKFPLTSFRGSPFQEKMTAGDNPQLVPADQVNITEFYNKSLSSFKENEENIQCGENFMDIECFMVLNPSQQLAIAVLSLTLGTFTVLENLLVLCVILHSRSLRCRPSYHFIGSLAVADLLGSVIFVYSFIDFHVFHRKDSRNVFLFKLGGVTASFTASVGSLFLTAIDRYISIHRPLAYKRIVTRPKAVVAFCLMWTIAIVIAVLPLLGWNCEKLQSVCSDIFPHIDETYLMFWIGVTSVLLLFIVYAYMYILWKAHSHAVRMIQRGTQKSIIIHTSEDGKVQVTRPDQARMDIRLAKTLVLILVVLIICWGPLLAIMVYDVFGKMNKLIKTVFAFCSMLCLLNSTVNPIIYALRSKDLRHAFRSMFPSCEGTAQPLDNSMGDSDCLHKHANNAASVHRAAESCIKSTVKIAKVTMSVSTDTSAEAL

Cannabinoid receptor 2 [5] = biological target: T1, Cannabinoid receptor 2; test: SAR analysis of antagonists of the Cannabinoid Receptor 2 using an Image-Based Assay - Set 3. [Related pubchem assays (depositor defined):AID2013, AID2026]; type: functional
[6] = biological target: T2, G-protein coupled receptor 35; test: SAR analysis of Agonists of the GPR35 Receptor using an Image-Based Assay - Set 4. [Related pubchem assays (depositor defined):AID2013, AID2026]; type: functional
Cannabinoid receptor 1 [7] = biological target: T3, Cannabinoid receptor 1; test: SAR analysis of agonists of the Cannabinoid Receptor 1 using an Image-Based Assay - Set 4. [Related pubchem assays (depositor defined):AID2013, AID2026]; type: functional
[8] = biological target: T4, Nucleotide-binding oligomerization domain-containing protein 1 (Homo sapiens, UniProt Q9Y239); test: SAR analysis of NF-kappaB dependent luciferase using DAP as an inducer - Set 2. [Related pubchem assays (depositor defined):AID1566, AID1575, AID1578, AID1579, AID1849, AID1852, AID2264]; type: functional
T4 sequence (Q9Y239 whole entry): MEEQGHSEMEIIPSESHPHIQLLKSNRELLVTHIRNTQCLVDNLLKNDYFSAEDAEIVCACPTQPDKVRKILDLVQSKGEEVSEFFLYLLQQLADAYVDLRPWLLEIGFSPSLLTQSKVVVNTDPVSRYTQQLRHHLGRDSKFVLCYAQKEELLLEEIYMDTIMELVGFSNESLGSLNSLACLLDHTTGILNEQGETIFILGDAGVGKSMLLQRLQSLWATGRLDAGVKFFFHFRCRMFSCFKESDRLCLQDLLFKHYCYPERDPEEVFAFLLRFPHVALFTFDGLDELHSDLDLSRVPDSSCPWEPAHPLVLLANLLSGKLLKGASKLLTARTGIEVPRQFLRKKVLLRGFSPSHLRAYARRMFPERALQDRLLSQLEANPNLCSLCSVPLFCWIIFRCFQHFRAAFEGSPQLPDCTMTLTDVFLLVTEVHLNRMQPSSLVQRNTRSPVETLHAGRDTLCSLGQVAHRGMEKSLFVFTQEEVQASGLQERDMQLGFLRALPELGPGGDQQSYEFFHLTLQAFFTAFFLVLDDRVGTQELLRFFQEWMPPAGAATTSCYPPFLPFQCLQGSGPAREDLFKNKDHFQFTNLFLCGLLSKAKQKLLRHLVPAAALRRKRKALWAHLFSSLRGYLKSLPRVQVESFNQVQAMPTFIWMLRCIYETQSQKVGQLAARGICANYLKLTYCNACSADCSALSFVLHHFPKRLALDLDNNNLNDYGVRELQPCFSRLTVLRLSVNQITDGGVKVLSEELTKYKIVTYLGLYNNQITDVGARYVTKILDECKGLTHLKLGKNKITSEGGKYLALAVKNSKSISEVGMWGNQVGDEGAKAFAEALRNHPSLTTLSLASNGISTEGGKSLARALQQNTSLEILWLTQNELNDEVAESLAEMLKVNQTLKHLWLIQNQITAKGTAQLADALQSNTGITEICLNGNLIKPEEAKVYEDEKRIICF

[9] = biological target: T5, Nucleotide-binding oligomerization domain-containing protein 2 (Homo sapiens, UniProt Q9HC29); test: inhibition of MDP-driven NOD2 NF-kB reporter – cell-based, set 3, SAR follow-up (AID 2799); type: functional
T5 sequence (Q9HC29 whole entry, the tested form may be a part): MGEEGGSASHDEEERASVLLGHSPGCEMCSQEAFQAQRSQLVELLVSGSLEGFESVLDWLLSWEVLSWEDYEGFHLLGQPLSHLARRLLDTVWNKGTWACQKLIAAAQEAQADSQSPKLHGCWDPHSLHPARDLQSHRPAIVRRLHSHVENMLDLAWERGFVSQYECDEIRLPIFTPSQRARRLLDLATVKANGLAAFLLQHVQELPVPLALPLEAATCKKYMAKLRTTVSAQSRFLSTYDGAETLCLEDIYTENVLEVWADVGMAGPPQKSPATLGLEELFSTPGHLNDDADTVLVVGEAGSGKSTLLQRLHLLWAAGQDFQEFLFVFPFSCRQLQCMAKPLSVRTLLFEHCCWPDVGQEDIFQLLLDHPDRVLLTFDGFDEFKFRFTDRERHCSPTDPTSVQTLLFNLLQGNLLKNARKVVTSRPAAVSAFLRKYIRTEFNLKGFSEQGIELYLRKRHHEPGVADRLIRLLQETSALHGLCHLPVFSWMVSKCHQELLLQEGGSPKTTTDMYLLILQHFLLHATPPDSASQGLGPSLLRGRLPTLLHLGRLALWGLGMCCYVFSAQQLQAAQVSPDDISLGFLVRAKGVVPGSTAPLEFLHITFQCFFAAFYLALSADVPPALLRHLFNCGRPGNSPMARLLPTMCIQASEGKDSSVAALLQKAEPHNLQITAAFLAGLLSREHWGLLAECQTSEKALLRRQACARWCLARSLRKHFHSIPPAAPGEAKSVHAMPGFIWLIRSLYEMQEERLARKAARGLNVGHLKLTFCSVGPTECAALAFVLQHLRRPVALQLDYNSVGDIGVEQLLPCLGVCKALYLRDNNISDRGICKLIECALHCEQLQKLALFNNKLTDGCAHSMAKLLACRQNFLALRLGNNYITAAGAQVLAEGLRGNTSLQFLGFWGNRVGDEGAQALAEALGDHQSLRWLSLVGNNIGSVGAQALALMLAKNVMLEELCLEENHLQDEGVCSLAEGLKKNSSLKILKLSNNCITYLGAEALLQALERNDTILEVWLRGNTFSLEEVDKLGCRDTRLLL

[10] = biological target: T4, Nucleotide-binding oligomerization domain-containing protein 1; test: SAR analysis of compounds that inhibit NOD1 - Set 3. [Related pubchem assays (depositor defined):AID1566, AID1575, AID1578, AID1849, AID1852, AID2333, AID2335, AID2466]; type: functional
[11] = biological target: T5, Nucleotide-binding oligomerization domain-containing protein 2; test: inhibition of NOD2 signaling – set 2, SAR follow-up (AID 2475); type: functional
HEK293 [12] = test: SAR analysis of compounds that are cytotoxic to HEK293 - Set 3. [Related pubchem assays (depositor defined):AID1575, AID1578, AID1848, AID1849, AID2001, AID2333, AID2334, AID2335, AID2337, AID2469]; type: functional, cell-based; conditions: Homo sapiens
Interleukin-8 [13] = biological target: T6, Interleukin-8 (Homo sapiens, UniProt P10145); test: SAR analysis of GM-Tri-DAP induced IL-8 secretion in MCF-7/NOD1 cells - Set 2. [Related pubchem assays (depositor defined):AID1575, AID1578, AID2333]; type: functional, cell-based
T6 sequence (P10145 whole entry): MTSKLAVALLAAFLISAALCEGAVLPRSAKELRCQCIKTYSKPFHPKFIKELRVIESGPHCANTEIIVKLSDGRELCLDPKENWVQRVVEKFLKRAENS

HEK293 [14] = test: SAR analysis of compounds that are cytotoxic to HEK293 - Set 2. [Related pubchem assays (depositor defined):AID1575, AID1578, AID1849, AID2001, AID2333, AID2334, AID2335, AID2337, AID2800]; type: functional, cell-based; conditions: Homo sapiens
[15] = reduction of Shn3 3'UTR-driven luciferase in osteoblasts – cell-based, Clone20 osteoblasts, firefly luciferase, cherry-picked, dose response (AID 624132); type: functional;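 also: firefly luciferase luminescence from reporter carrying the Shn3 3'UTR in osteoblasts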
[16] = non-specific 3'UTR reporter inhibition in Clone20-Shn3RL – cell-based, Renilla luciferase, cherry-picked, counter-screen for Shn3 inhibitor project, dose response (AID 624133); type: functional
Tumor necrosis factor = Tumor necrosis factor (Homo sapiens, UniProt P01375); test: analog potency on TNFa NF-kB signaling – cell-based, set 3, SAR follow-up (AID 2801); type: functional
Chain of Tumor necrosis factor (P01375 whole entry): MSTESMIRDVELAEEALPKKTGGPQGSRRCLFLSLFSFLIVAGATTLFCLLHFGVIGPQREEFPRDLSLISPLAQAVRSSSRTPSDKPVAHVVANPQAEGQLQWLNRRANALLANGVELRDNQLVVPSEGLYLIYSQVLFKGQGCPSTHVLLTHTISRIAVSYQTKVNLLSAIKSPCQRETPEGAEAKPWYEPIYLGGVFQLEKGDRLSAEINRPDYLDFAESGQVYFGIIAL

[17] = loss of viability in HepG2 cells – cell-based, CellTiter-Glo, cherry-picked, cytotoxicity control for Shn3 inhibitor project, dose response (AID 624134); type: functional
[18] = biological target: T4, Nucleotide-binding oligomerization domain-containing protein 1; test: SAR analysis of compounds that inhibit NOD1 - Set 2. [Related pubchem assays (depositor defined):AID1566, AID1575, AID1578, AID1849, AID1852, AID2333, AID2335, AID2798]; type: functional
Interleukin-8 [19] = biological target: T6, Interleukin-8; test: SAR analysis of Tumor necrosis factor alpha (TNF-alpha) induced IL-8 secretion in MCF-7/NOD1 cells - Set 2. [Related pubchem assays (depositor defined):AID1575, AID2250, AID2260]; type: functional, cell-based
[20] = biological target: Sphingosine 1-phosphate receptor 1 (Homo sapiens, UniProt P21453); test: Late stage counterscreen assay for S1P4 antagonists: Fluorescence dose response cell-based screening assay for antagonists of the Sphingosine 1-Phosphate Receptor 1 (S1P1). [Related pubchem assays (depositor defined):AID1510, AID1524, AID1692, AID1853, AID2332, AID489009, AID489017]; type: functional
Chain of Sphingosine 1-phosphate receptor 1 (P21453 whole entry): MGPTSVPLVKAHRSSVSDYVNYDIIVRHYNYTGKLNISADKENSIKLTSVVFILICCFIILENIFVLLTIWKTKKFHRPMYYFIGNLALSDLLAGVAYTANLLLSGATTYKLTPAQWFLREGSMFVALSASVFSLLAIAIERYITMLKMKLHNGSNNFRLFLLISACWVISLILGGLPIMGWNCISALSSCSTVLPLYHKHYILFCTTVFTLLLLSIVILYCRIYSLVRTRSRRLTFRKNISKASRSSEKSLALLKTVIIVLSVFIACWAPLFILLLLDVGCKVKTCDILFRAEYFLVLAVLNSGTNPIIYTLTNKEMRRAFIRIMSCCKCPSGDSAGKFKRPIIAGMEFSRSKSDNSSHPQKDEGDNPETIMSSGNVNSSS

[21] = biological target: Sphingosine 1-phosphate receptor 3 (Homo sapiens, UniProt Q99500); test: Late stage counterscreen assay for S1P4 antagonists: Fluorescence dose response cell-based screening assay for antagonists of the Sphingosine 1-Phosphate Receptor 3 (S1P3). [Related pubchem assays (depositor defined):AID1510, AID1524, AID1692, AID1853, AID2332, AID489009, AID489017]; type: functional
Chain of Sphingosine 1-phosphate receptor 3 (Q99500 whole entry): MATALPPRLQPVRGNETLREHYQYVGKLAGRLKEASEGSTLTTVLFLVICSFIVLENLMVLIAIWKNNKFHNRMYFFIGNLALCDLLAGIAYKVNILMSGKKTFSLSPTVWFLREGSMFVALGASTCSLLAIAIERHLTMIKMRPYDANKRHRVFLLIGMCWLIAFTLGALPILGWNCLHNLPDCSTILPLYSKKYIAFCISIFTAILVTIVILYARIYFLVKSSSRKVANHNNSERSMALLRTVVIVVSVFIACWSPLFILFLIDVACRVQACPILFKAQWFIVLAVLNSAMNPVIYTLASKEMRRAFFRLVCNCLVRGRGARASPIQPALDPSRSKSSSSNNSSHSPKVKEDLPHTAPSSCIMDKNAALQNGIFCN

[22] = biological target: Sphingosine 1-phosphate receptor 5 (Homo sapiens, UniProt Q9H228); test: Late stage counterscreen assay for S1P4 antagonists: Fluorescence dose response cell-based screening assay for antagonists of the Sphingosine 1-Phosphate Receptor 5 (S1P5). [Related pubchem assays (depositor defined):AID1510, AID1524, AID1692, AID1853, AID2332, AID489009, AID489017]; type: functional
Chain of Sphingosine 1-phosphate receptor 5 (Q9H228 whole entry): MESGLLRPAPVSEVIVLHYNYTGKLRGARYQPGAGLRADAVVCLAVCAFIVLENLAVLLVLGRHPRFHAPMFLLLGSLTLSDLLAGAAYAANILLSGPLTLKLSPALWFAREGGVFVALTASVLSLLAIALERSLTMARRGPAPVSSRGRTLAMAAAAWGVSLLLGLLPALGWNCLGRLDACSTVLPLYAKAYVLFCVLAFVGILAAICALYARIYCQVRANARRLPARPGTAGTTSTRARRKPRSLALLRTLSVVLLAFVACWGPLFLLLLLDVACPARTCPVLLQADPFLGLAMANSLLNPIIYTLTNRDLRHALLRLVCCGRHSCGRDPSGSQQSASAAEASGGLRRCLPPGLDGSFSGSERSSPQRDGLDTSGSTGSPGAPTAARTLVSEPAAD

[23] = biological target: Sphingosine 1-phosphate receptor 2 (Homo sapiens, UniProt O95136); test: Late stage counterscreen assay for S1P4 antagonists: Fluorescence dose response cell-based screening assay for antagonists of the Sphingosine 1-Phosphate Receptor 2 (S1P2). [Related pubchem assays (depositor defined):AID1510, AID1524, AID1692, AID1853, AID2332, AID489009, AID489017]; type: functional
Chain of Sphingosine 1-phosphate receptor 2 (O95136 whole entry): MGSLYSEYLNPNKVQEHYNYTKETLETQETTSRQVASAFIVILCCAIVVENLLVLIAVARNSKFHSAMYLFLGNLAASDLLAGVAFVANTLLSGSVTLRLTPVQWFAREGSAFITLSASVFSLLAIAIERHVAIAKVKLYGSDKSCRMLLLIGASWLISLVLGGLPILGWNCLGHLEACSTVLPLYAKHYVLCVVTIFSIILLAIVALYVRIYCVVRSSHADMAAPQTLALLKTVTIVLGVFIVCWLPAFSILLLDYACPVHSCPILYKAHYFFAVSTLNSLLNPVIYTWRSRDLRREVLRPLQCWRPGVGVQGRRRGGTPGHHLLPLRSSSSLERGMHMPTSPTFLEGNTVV

EC50 (Cannabinoid receptor 2 [1]): > 32 µM (inactive) | IC50 [2]: 13.7 µM (inactive) | IC50 [3]: > 32 µM (inactive) | IC50 (Cannabinoid receptor 1 [4]): 4.92 µM (active) | IC50 (Cannabinoid receptor 2 [5]): > 32 µM (inactive) | EC50 [6]: > 32 µM (inactive) | EC50 (Cannabinoid receptor 1 [7]): > 32 µM (inactive)
SMILES: Cc1cc(C)nc(NS(=O)(=O)c2ccc(NC(=O)c3cc(-c4ccccc4)nc4ccccc34)cc2)n1

SMILES: C/C(Cl)=C\Cn1c(NCCc2ccccc2)nc2c1c(=O)n(C)c(=O)n2C
IC50 [8]: > 25 µM (inactive) | IC50 [9]: 3.05 µM (active) | IC50 [10]: 4.13 µM (active) | IC50 [11]: 2.5 µM (active) | IC50 (HEK293 [12]): > 20 µM (inactive) | IC50 (Interleukin-8 [13]): > 25 µM (inactive) | IC50 (HEK293 [14]): > 20 µM (inactive) | AC50 [15]: 0.283 µM (active) | AC50 [16]: 0.493 µM (active) | IC50 (Tumor necrosis factor): 5.66 µM (active) | AC50 [17]: 59.4 µM (active) | IC50 [18]: 2.61 µM (active) | IC50 (Interleukin-8 [19]): > 25 µM (inactive)

IC50 [20]: > 25 µM (inactive) | IC50 [21]: > 25 µM (inactive) | IC50 [22]: > 25 µM (inactive) | IC50 [23]: > 25 µM (inactive)
SMILES: Cc1ccc2ccccc2c1NC(=O)c1ccc(-c2cc(Cl)ccc2Cl)o1
